{
  "source": "paper PMC3086806",
  "about": "“Mining a Cathepsin Inhibitor Library for New Antiparasitic Drug Leads” (PLoS Neglected Tropical Diseases, 2011)",
  "key": {"rhodesain": {"biological_target": "T1, rhodesain (Trypanosoma brucei rhodesiense, UniProt Q95PM0)", "T1 construct": "made in house", "T1 sequence (Q95PM0 entry or part of it)": "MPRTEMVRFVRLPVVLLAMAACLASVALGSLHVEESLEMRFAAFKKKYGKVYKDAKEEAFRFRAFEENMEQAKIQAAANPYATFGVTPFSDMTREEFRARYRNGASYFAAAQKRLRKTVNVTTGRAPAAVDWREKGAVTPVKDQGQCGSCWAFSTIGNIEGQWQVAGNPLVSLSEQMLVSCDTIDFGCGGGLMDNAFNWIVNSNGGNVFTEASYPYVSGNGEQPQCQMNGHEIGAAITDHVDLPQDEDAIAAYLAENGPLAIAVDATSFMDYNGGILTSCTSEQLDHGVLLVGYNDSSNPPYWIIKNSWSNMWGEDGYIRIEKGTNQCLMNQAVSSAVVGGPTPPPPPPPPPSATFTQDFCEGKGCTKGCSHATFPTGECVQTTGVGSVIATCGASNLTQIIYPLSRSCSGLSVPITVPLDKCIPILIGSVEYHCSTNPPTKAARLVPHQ", "test": "Rhodesain protease inhibition assay (Z-Phe-Arg-AMC)", "format": "biochemical", "procedure": "(§1) Recombinant cruzain, rhodesain, TbCatB, falcipain-2 and falcipain-3 were expressed as described previously, [39], [40], [41], [42]. Inhibitor stock solutions were prepared in DMSO and screened at 0.1 µM for cruzain and rhodesain, 1 µM for TbCatB and 50 nM for falcipain-3 (0.5% DMSO in assay). […] Protease inhibition assays for cruzain and rhodesain were carried out in 96 well plate format as described previously. Cruzain (4 nM), rhodesain (4 nM) or TbCatB (258 nM) was incubated with test compound in 100 mM sodium acetate, pH 5.5, containing 5 mM DTT and 0.01% Triton X-100 (buffer A), for 5 min at room temperature (the higher concentration of TbCatB was required due to its lower intrinsic activity against the fluorogenic substrate). Then buffer A containing Z-Phe-Arg-AMC (Bachem) was added to enzyme-compound mixture to give 10 µM substrate in a final assay volume of 200 µL. The rate of free AMC release was measured at excitation and emission wavelengths of 355 and 460 nm, respectively, with a microtiter plate spectrofluorimeter (SpectraMax M5, Molecular Devices) for 3 min. Percentage inhibition of test compound was calculated relative to the DMSO control (0% inhibition control). IC50 values were determined with Prism 4 software (GraphPad, San Diego, CA) using sigmoidal dose-response variable slope model."}, "TbCatB": {"biological_target": "T2, TbCatB (Trypanosoma brucei, UniProt Q6R7Z5)", "T2 construct": "made in house", "T2 sequence (Q6R7Z5 23-340)": "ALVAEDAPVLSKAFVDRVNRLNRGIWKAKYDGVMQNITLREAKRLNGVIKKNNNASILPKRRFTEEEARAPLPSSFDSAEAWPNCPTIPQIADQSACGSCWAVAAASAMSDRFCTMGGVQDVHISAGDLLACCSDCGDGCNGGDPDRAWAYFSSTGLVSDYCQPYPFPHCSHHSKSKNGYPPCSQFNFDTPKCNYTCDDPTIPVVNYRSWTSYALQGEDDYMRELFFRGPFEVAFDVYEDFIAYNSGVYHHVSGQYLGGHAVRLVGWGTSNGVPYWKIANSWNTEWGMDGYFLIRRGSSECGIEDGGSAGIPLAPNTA", "test": "TbCatB protease inhibition assay (Z-Phe-Arg-AMC)", "format": "biochemical", "procedure": "as §1"}, "cruzain": {"biological_target": "T3, cruzain (Trypanosoma cruzi, UniProt P25779)", "T3 construct": "made in house", "T3 sequence (P25779 123-467)": "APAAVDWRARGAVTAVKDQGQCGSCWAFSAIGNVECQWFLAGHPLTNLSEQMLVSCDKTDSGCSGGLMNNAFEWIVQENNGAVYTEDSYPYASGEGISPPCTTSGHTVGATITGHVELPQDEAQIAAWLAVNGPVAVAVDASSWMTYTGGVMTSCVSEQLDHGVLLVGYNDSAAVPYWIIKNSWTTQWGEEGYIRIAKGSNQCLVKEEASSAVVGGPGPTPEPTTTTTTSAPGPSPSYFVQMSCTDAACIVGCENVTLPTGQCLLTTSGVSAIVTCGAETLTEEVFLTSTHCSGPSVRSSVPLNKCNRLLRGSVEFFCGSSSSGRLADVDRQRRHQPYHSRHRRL", "test": "Cruzain protease inhibition assay (Z-Phe-Arg-AMC)", "format": "biochemical", "procedure": "as §1"}, "[1]": {"tested_on": "T. brucei brucei clone 427-221a bloodstream forms", "test": "T. brucei brucei growth inhibition assay", "format": "cell-based", "conditions": "Trypanosoma brucei; 40 hours", "procedure": "The growth inhibition assay for T. brucei brucei was conducted as described previously. Bloodstream forms of the monomorphic T. brucei brucei clone 427-221a were grown in complete HMI-9 medium containing 10% FBS, 10% Serum Plus medium (Sigma Inc. St. Louis Mo. USA), 50 U/mL penicillin and 50 µg/mL streptomycin (Invitrogen) at 37°C under a humidified atmosphere and 5% CO2. […] 5 µL of each dilution was added to 95 µL of diluted parasites (1×10^4 cells per well) in sterile Greiner 96-well flat white opaque culture plates such that the final DMSO concentration was 0.5%. The 0% inhibition control wells contained 0.5% DMSO while 100% inhibition control wells contained 50 µM thimerosal (Sigma). After compound addition, plates were incubated for 40 hours at 37°C. At the end of the incubation period, 50 µL of CellTiter-Glo™ reagent (Promega Inc., Madison, WI, USA) was added to each well and plates were placed on an orbital shaker at room temperature for 2 min to induce lysis. After an additional 10 min incubation without shaking to stabilize the signal, the ATP-bioluminescence of each well was determined using an Analyst HT plate reader (Molecular Devices, Sunnyvale, CA, USA). Raw values were converted to log10 and percentage inhibition calculated relative to the controls. IC50 curve fittings were performed with Prism 4 software as above."}, "[2]": {"tested_on": "intracellular T. cruzi (CA-I/72) in BESM cells", "test": "T. cruzi amastigote growth inhibition assay", "format": "cell-based", "conditions": "Trypanosoma cruzi; infected BESM cells, 72 hours", "procedure": "(§2) The growth inhibition assay for the intracellular T. cruzi was conducted in 96-well plate format as described previously. Briefly, bovine embryo skeletal muscle (BESM) cells (2×10^3/well), seeded overnight, were infected with CA-I/72 T. cruzi trypomastigotes (2×10^3/well). Sixteen hours post-infection, test compounds (serial dilution concentrations starting from 20 µM) were added and assay plates were incubated for an additional 72 hours at 37°C with 5% CO2. Cells were then washed once in PBS, fixed with 4% paraformaldehyde and stained with DNA fluorescent dye DAPI (4′ 6-diamidino-2-phenylindole). The assay plates were then imaged in the IN Cell Analyzer 2000 (GE Healthcare) with the excitation and emission filters set of 350 nm and 460 nm, respectively, to detect DAPI signals. The feature extraction module in IN Cell Developer Toolbox 1.7 software was used to count host nuclei and parasite kinetoplasts by size difference."}, "[3]": {"test": "Jurkat cell cytotoxicity assay", "format": "cell-based", "conditions": "human, Jurkat cells (clone E6-1), read-out: Cytotoxicity (% inhibition at 10 µM) Jurkat cells", "procedure": "Jurkat cells (clone E6-1) were grown in complete RPMI-1640 medium containing 10% FBS, 50 U/mL penicillin and 50 µg/mL streptomycin (Invitrogen) at 37°C under a humidified atmosphere and 5% CO2. For cytotoxicity testing, cells were diluted to 1×10^5 per ml in complete RPMI-1640 medium. Test compound stocks were prepared in 100% DMSO and screened at 10 µM against cells (1×10^4 cells per well) in sterile Greiner 96-well flat white opaque culture plates (0.5% final DMSO concentration). The 0% inhibition control wells contained 0.5% DMSO while 100% inhibition control wells contained 40 µM staurosporine. After compound addition, plates were incubated for 40 hr at 37°C. At the end of the incubation period, 50 µL of CellTiter-Glo™ reagent (Promega Inc., Madison, WI, USA) was added to each well and plates were placed on an orbital shaker at room temperature for 2 min to induce lysis. After a further 10 min incubation without shaking to stabilize the signal, the ATP-bioluminescence of each well was determined using an Analyst HT plate reader (Molecular Devices, Sunnyvale, CA, USA). Calculations of percentage inhibition and IC50 were performed similar to those in the T. brucei brucei assay."}, "[4]": {"test": "Toxicity toward host BESM cells in the T. cruzi assay", "format": "cell-based, bovine", "conditions": "bovine; highest assay concentration 20 µM", "procedure": "as §2\nAll falcipain-3 inhibitors were also tested against falcipain-2. […] The entire library was examined for cytotoxicity to a mammalian cell line (Jurkat) at a concentration of 10 µM, and those compounds studied in the T. cruzi assay were also evaluated for toxicity (at 20 µM) toward the host BESM cells used in that assay. […]"}, "human cathepsin L": {"biological_target": "human cathepsin L", "parameters": "method as in data provided by Celera Genomics", "conditions": "historical data; ref data provided by Celera Genomics; read-out: Ki catL; cited from earlier work"}, "human cathepsin B": {"biological_target": "human cathepsin B", "parameters": "method as in data provided by Celera Genomics", "conditions": "historical data; ref data provided by Celera Genomics; read-out: Ki catB; cited from earlier work"}},
  "data": [
    {"smiles": "CCCCC(NC(=O)C(CCC)NC(c1ccc(-c2ccc(S(C)(=O)=O)cc2)cc1)C(F)(F)F)C(=O)c1nnc(-c2ccco2)o1", "note": "(stereo not drawn) [Compound 24]", "values": [
      {"measurement": "IC50", "setting": "rhodesain", "result": 6, "unit": "nM"},
      {"measurement": "IC50", "setting": "TbCatB", "result": 50, "unit": "nM"},
      {"measurement": "IC50", "setting": "cruzain", "result": 10, "unit": "nM"},
      {"measurement": "GI50", "setting": "[1]", "result": 7, "unit": "µM"},
      {"measurement": "GI50", "setting": "[2]", "result": 7.6, "unit": "µM"},
      {"measurement": "cytotoxicity at 40 h, 10 µM", "setting": "[3]", "result": "< 5", "unit": "%"},
      {"measurement": "GI50 at 72 h", "setting": "[4]", "result": "> 20", "unit": "µM"},
      {"measurement": "Ki", "setting": "human cathepsin L", "result": 18, "unit": "nM"},
      {"measurement": "Ki", "setting": "human cathepsin B", "result": 1.6, "unit": "nM"}
    ]}
  ]
}
